Laboratory results from article PMC8150775, “Repositioning Azelnidipine as a Dual Inhibitor Targeting CD47/SIRPα and TIGIT/PVR Pathways for Cancer Immuno-Therapy” (Biomolecules, 2021).

Legend:
[1] = molecular target: T1, human CD47/SIRPα (Homo sapiens, UniProt P78324); experiment: Blocking assay, human SIRPα protein binding to CHOK1-hCD47 cells; conditions: concentration gradient; read-out: IC50, blocking human CD47/SIRPα (hSirpα binding)
T1 construct: purchased ACRO Biosystem SIA-H5251; host or cells: soluble protein purchased; CD47 on CHOK1-hCD47 cells (lenti-viral transfection)
Procedure: The abilities of small molecule inhibitors (SMIs) (purchased from TargetMol, Shanghai, China) to block the binding of SIRPα protein to CHOK1-CD47 cells or PVR protein to CHOK1-TIGIT cells were determined by flow cytometry, as previously reported. The SMIs at indicated concentrations were incubated with Fc-tagged SIRPα or PVR protein for 30 min at 4°C, followed by incubating with the indicated cells for another 30 min. Human SIRPα protein (SIA-H5251, ACRO Biosystem, Beijing, China), mouse SIRPα protein (SIA-M5258, ACRO Biosystem, Beijing, China), human PVR protein (CD5-H82F6, ACRO Biosystem, Beijing, China), and mouse PVR protein (50259-M03H, Sino Biological, Beijing, China) were used. PE-conjugated anti-human IgG antibody was used to detect the Fc protein bind to cells. Cells incubated with the Fc proteins and anti-human IgG antibody without the SMIs serve as the positive control. The mean fluorescent intensity (MFI) of each sample was detected and recorded by a flow cytometry. The blocking efficacy of the SMIs was calculated as the equation: (MFI of the positive control-MFI of the SMI)/MFI of the positive control × 100%.

[2] = molecular target: T2, human PD-1/PD-L1 (Homo sapiens, UniProt Q15116); experiment: Blocking assay, PD-1-Fc protein binding to CHOK1-hPD-L1 cells; conditions: 100 μM
T2 construct: host or cells: CHOK1-hPD-L1 cells
Source text: The small molecule inhibitor could not only bind to the target; most importantly, it should interfere with the receptor–ligand interactions. Subsequently, the candidate inhibitors were screened by the blocking assays with the established CD47 and TIGIT over-expressing cell lines. The test was initialed with a preliminary screening of the candidates with a single concentration (Figure 2D). Generally, the SMI blocking efficacy to the CD47/SIRPα interaction was much higher than that of the TIGIT/PVR. […] Therefore, the SMI-F11 and SMI-F17 may exert dual blocking effects in the CD47/SIRPα and TIGIT/PVR pathways. Blocking assays with a concentration gradient of the SMI were further performed to validate the preliminary screening. […] The similar blocking assays with the mouse CD47 and TIGIT over-expressing cells were also performed. […] Considering that most pairs of the immune checkpoints interact with the corresponding ligand in parallel forms, the blocking assays with the PD-1/PD-L1 interaction system was also conducted to test the specificity.
There are three supplemental Figures and one supplemental Table.
Supplemental figure and legend
Figure S1. The blocking efficacy of PD-1/PD-L1 by Azelnidipine. (A) The representative FACS histogram of blocking assay of Azelnidipine (100 μM) with CHOK1-hPD-L1 cells and PD-1-Fc protein (blue histogram). […]

[3] = system: CD47; experiment: Flow cytometry of CD47 expression on CT26 cells in vitro; type: cell-based, mouse; conditions: 20 μM, 24 h
Procedure: (§1) Cells in good growth condition were harvested and used to detect the expression of CD47 and PVR. Antibodies anti-human CD47 APC, anti-human PVR PE, anti-mouse-CD47 APC, anti-mouse-PVR APC, and matched isotype controls were purchased from eBioscience, San Diego, CA, USA. The effects of azelnidipine on the expression of CD47 and PVR was determined by incubating CT26 cells with 20 μM of azelnidipine for 24 h, or directly analyzing the tumor cells from tumor tissues of CT26-bearing mice treated with or without azelnidipine.
(§2) Figure S3. The effects of Azelnidipine on the expression of CD47 and PVR on CT26 tumor cells. (A and B) CT26 cells were incubated with 20 μM Azelnidipine or vehicle control for 24h, and analyzed the expression of CD47 (A) and PVR (B). The gray shaded histogram represents the isotype, the red line represents the cells treated with vehicle control, and the blue line represents the cells treated with Azelnidipine. (C and D) Tumor cells (CD45-) derived from the tumor tissues of CT26 tumor-bearing mice treated with normal saline (NS) or 5 mg/kg Azelnidipine for twelve days, were analyzed for the expression of CD47 (C) and PVR (D). n.s. means not […]
(§3) (1 picture or pasted object on this page, not shown here)

[4] = system: PVR; experiment: Flow cytometry of PVR expression on CT26 cells in vitro; type: cell-based, mouse; conditions: 20 μM, 24 h
Procedure: as §1, §2, §3

[5] = system: THP-1 macrophages; parameters: method as in PMID 29398679, PMID 20606305; conditions: cited from earlier work
[6] = system: tumor; parameters: method as in earlier work; conditions: cited from earlier work

T1 sequence (P78324 31-370 limits assumed): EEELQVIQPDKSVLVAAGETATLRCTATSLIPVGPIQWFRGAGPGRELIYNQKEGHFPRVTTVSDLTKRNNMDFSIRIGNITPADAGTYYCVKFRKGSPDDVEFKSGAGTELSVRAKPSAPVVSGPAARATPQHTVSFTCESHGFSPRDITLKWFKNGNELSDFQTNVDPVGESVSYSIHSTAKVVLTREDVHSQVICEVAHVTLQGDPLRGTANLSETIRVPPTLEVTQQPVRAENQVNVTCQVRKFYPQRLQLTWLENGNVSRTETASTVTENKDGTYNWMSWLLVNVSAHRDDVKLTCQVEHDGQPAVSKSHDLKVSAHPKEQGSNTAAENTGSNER
T2 sequence (Q15116 25-167 limits assumed): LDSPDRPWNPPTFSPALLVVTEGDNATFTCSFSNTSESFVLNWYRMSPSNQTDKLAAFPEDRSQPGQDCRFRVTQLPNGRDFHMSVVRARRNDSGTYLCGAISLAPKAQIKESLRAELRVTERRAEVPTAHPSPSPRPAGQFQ

- IC50 [1]: ~36 µM
- blocking of human PD-1/PD-L1 interaction [2]: could not block
Structure (SMILES): CC1=C(C(=O)OC(C)C)C(c2cccc([N+](=O)[O-])c2)C(C(=O)OC2CN(C(c3ccccc3)c3ccccc3)C2)=C(N)N1 (stereo not drawn) [Azelnidipine]
- expression of CD47 on CT26 cells [3]: without suppressing
- expression of PVR on CT26 cells [4]: slightly inhibit
- differentiation and activation of THP-1 macrophages [5]: inhibit the differentiation and activation
- tumor growth in vivo [6]: significantly inhibit the tumor growth in vivo
